Data published in US20160122758A1, “AGENTS FOR DOWNREGULATION OF THE ACTIVITY AND/OR AMOUNT OF BCL-XL AND/OR BCL-W” (YEDA RESEARCH AND DEVELOPMENT CO. LTD., priority 2013, published 2016).
Residues, ends and D or L forms follow the SMILES beside them. *: point of attachment. Cbz = O=C(OCc1ccccc1)*; CH2F = FC*

What was measured:
[1] = system: senescent IMR-90 or MEF cells; assay: Viability assay, ABT-199 alone on senescent IMR-90 or MEF cells; format: cell-based, human, mouse; conditions: ABT-199 for 24 hours
Procedure: (§1) Human primary fibroblasts (IMR-90, BJ) were obtained from ATCC MEFs were prepared from day 13.5 embryos. All cultures were maintained in DMEM supplemented with 10% fetal bovine serum (Hyclone). Senescence was induced by treatment with Etoposide ([…], Sigma), or the introduction of oncogenic H-ras^v12 using infections into IMR-90 cells (as described by Narita, 2003).
(§2) Growing and senescent cells were plated in 12-well plates at 7.5×10^4 cells per well. The following day, cells were treated with DMSO control, ABT-737 (Selleckchem, USA) or ABT-199 (ChemieTek, USA) and cell viability was analyzed 24 hours thereafter. 300 μl of PrestoBlue Reagent (Invitrogen, USA) were added to each well, and plates were incubated for 20 minutes at 37 C. 100 μl samples were taken in duplicates to a 96 well plate and read at an OD of 540 nm using a Tecan plate reader (Infinite® M200). A three-hour pre incubation with 100 μM z-VAD-fmk (Santa Cruz, USA) was performed prior to the addition of ABT-737 where indicated.

[2] = system: Etoposide treated senescent IMR-90 cells; assay: Viability assay after siRNA transfection of Etoposide treated senescent IMR-90 cells; format: cell-based, human; conditions: 10 μM ABT-199 for 24 hours, three days post siRNA transfection
Procedure: as §1, §2
ON-TARGETplus SMARTpool small-interfering RNAs targeting p21, Bcl-2, Bcl-w, Bcl-xL and the nontargeting pool siRNAs (control) were transfected into cells with the Dharmafect 1 reagent (all from Dharmacon, Lafayette, Colo., USA). siRNAs were washed away 24 hours post transfection and viability was analyzed four days thereafter as described above.

senescent IMR-90 cells = assay: Viability assay, ABT-737 with or without z-VAD-fmk on IMR-90 cells; format: cell-based, human
Procedure: as §1, §2
Members of the Bcl-2 family negatively regulate apoptotic pathway (Azmi et al., 2011; Cory et al., 2003; Reed, 2008). To determine whether ABT-737 kills senescent cells via the apoptotic pathway, DNA damage induced senescent IMR-90 cells, oncogenic H-Ras^v12 induced senescent cells and control growing cells were treated with ABT-737 alone or in combination with pan-caspase inhibitor z-VAD-fmk. […]

cleaved caspase-3 = assay: Immunoblot for cleaved caspase-3 in IMR-90 cells treated with ABT-737 with or without z-VAD-fmk; format: cell-based, human
Procedure: Cells were lysed in RIPA buffer. Equal amounts of protein were separated on 12% SDS-polyacrylamide gels and transferred to PVDF membranes. Detection was performed using the following antibodies: anti-Rb (9313), anti-cleaved parp (9541), anti-cleaved caspase-3 (9661), anti-phospho-p53 (9284), anti-mouse-p53 (2524), anti-phospho-NF-κB (3033), anti-Bcl-2 (2870), anti-Bcl-w (2724) and anti-Bcl-xL (2764) were purchased from Cell Signaling Technology. Anti-human p53 (DO1 and PAb1801). Anti-p16 (sc-759), anti-mouse-p21 (sc-397), anti-NFκB p65 (sc-372) and anti-α-Tubulin (sc-9104) were obtained from Santa Cruz Biotechnology. Anti-human-p21 (556431) was obtained from BD Pharmingen, Anti-Mcl-1 (1239-1) was obtained from Epitomics.
as §2, with “indicated. […]” for “indicated.”

[3] = system: senescent human (IMR-90) and mouse (MEF) fibroblasts; assay: Viability assay, ABT-737 on senescent and control IMR-90 and MEF fibroblasts; format: cell-based; conditions: ABT-737 for 24 hours
Procedure: as §1, §2
To further test the hypothesis that an increase in the levels of anti-apoptotic proteins Bcl-w and Bcl-xL could account for the apoptotic resistance of senescent cells by an independent approach, cells were treated with the pharmacological inhibitor of the Bcl-2 family of proteins, ABT-737 (Chauhan et al., 2007). […]

[4] = system: Etoposide treated BJ cells; assay: Viability assay after siRNA transfection, senescent BJ cells; format: cell-based, human; conditions: Etoposide treated BJ cells with sip21; z-VAD-fmk four days with daily replenishment
Procedure: as §1, §2
ON-TARGETplus SMARTpool small-interfering RNAs targeting p21, Bcl-2, Bcl-w, Bcl-xL and the nontargeting pool siRNAs (control) were transfected into cells with the Dharmafect 1 reagent (all from Dharmacon, Lafayette, Colo., USA). siRNAs were washed away 24 hours post transfection and viability was analyzed four days thereafter as described above. […]

## CC1(C)CCC(CN2CCN(c3ccc(C(=O)NS(=O)(=O)c4ccc(NCC5CCOCC5)c([N+](=O)[O-])c4)c(Oc4cnc5[nH]ccc5c4)c3)CC2)=C(c2ccc(Cl)cc2)C1 [ABT-199]
[1]
  effect on viability of oncogenic H-ras^v12 induced senescent IMR-90 cells: minor decrease in cell viability
[1]; IMR-90 or MEF senescent cells
  effect on viability of senescent cells, Bcl-2 inhibition alone: almost no effect
[2]
  additive effect of Bcl-2 inhibition on top of Bcl-w and Bcl-xL knockdown on senescent cell viability: statistically significant, but minor additive effect

## CN(C)CC[C@H](CSc1ccccc1)Nc1ccc(S(=O)(=O)NC(=O)c2ccc(N3CCN(Cc4ccccc4-c4ccc(Cl)cc4)CC3)cc2)cc1[N+](=O)[O-] [ABT-737]
Senescent IMR-90 cells; ABT-737 alone, 24 hours, DNA damage or H-Ras^v12 induced senescent IMR-90
  death of senescent cells: induced death
Cleaved caspase-3; senescent IMR-90 cells treated with ABT-737
  caspase-3 cleavage: caspase-3 cleavage
[3]; Etoposide or H-Ras^V12 induced senescent IMR-90 and MEF
  reduction of viability of senescent cells: 50%
[3]; growing, vehicle treated or vector transduced cells
  effect on viability of control cells: minor effect

## COC(=O)C[C@H](NC(=O)[C@H](C)NC(=O)[C@@H](NC(=O)OCc1ccccc1)C(C)C)C(=O)CF [z-VAD-fmk] (Cbz-Val-Ala-Asp(OMe)-CH2F)
[4]
  rescue of cell death caused by p21 knockdown: 20%
Senescent IMR-90 cells; 100 μM z-VAD-fmk three-hour pre incubation, then ABT-737
  death of senescent cells following ABT-737 treatment, in presence of pan-caspase inhibitor: prevented death
Cleaved caspase-3; senescent IMR-90 cells, ABT-737 plus z-VAD-fmk
  caspase-3 cleavage after addition of z-VAD-fmk to ABT-737: abolished this cleavage
